In the OPERA property sets (Mansouri et al. 2018):
Values after ≈ are worked out from the molar mass of the structure shown.

Details: for solubility: 25 °C

logP	solubility	Compound
2.5	0.562 mM (≈ 113 µg/mL)	O=Cc1cc(O)cc(Br)c1
1.88		CC(C)OC(=O)COc1ccc(C=O)cc1
3.35	0.158 mM (≈ 41.8 µg/mL)	O=Cc1cc(Br)ccc1Br
1.29		O=Cc1cccc(O)c1
1.83	6.62 mM (≈ 1330 µg/mL)	O=Cc1ccc(O)c(Br)c1
0.54	99.9 mM (≈ 13800 µg/mL)	O=Cc1cc(O)ccc1O
1.63		CCOc1ccc(C=O)cc1OC

Compound	logP	solubility
COc1ccc(C=O)cc1OC		38 mM (≈ 6320 µg/mL)
COc1cc(C=O)cc(OC)c1OC	1.39	
COc1ccc(OC)c(C=O)c1	1.91	4.78 mM (≈ 795 µg/mL)
O=Cc1ccc(O)cc1		106 mM (≈ 12900 µg/mL)
O=Cc1ccc(O)c(O)c1	1.09	
